Measurements taken from patent US12391646B2, “Using adiponectin receptor agonists to treat inflammation and bone diseases in diabetes” (Trustees of Tufts College, priority 2020, dated 2025).

How the values were obtained:
[1] = tested on: NF-κB and p38 MAPK signaling pathways, APPL1; assay: Western blotting of signaling proteins in Raw264.7 cells; format: cell-based; conditions: for densitometry value p-IRAK4 (FIG. 5a) / densitometry value p-P38 (FIG. 5a) / densitometry value APPL1 (FIG. 5e), without LPS / densitometry value APPL1 (FIG. 5e), with LPS: relative to first lane 1.00, lane order inferred; for densitometry value p-IRAK4 (FIG. 5a) / densitometry value p-P38 (FIG. 5a): APR 20 μM or AdipoAI 5 μM 24 h, LPS 30 min; for densitometry value APPL1 (FIG. 5e), without LPS: APR 20 μM; for densitometry value APPL1 (FIG. 5e), with LPS: LPS alone 0.32
Method: FIG. 5 AdipoAI inhibition of NF-κB and p38 MAPK signaling pathways is dependent of AdipoR1/APPL1 axis in LPS-induced macrophages. (a) Impact of AdipoAI in the phosphorylation of related signaling proteins by western blotting. Raw264.7 cells were pretreated with APR (20 μM) or AdipoAI (5 μM) for 24 h followed by incubation with LPS (100 ng/mL) for an additional 30 min. Representative images are shown, and quantitative analysis of protein expression was performed by densitometric analysis (see lower panel), densitometry values—p-IRAK4: 1.00, 0.13, 0.09; p-P38: 1.00, 0.76, 0.26. (b) Expression of p65 protein in cytoplasmic and nuclear extracts of Raw264.7 cells. Representative images of p65 expression are presented along with Lamin B1 and β-actin expression which were used as internal loading controls. Quantitative analysis of protein expression was performed by densitometric analysis (lower panel), Densitometry values-p-P65: 0.53, 1.00, 0.38, 0.76; P65: 0.32, 1.00, 0.21, 0.53. (c) RAW 264.7 cells were transfected with siRNA targeting cither AdipoR1, AdipoR2, APPL1, APPL2 or scrambled control siRNA for 24 h, followed by stimulation with AdipoAI or APR for 24 h, then incubation with LPS for additional 6 h. Transfection efficiency of siRNA and mRNA expression levels of IL-6, IL-1β were measured by qPCR and normalized with GAPDH mRNA levels. Data were expressed as the mean±SEM at five biological independent experiments. One-way ANOVA test for multiple-group comparisons, *P<0.05, significant differences between each indicated group. ns, not significant. (d) RAW 264.7 cells were stimulated with LPS, AdipoAI, or APR for different times and proteins levels determined by western blotting. Representative western blotting images are shown along with β-actin used as an internal loading control and densitometric analysis. Densitometry values-Panel 1: APPL1: 1.00, 0.48, 0.44; Panel 2: APPL1: 1.00, 2.17, 5.38; Panel 3: APPL1: 1.00, 2.11, 4.82. (e) Raw264.7 cells were pretreated with APR (20 μM) or AdipoAI (5 μM) for 24 h followed by incubation with LPS (100 ng/mL) for additional 6 h for the measurement of related proteins by WB. Representative images are shown along with β-actin as an internal loading control and densitometric analysis. Densitometry values—APPL1: 1.00, 1.53, 1.58, 0.32, 0.45, 0.67. (f) Raw264.7 cells and (g) BMMs were transfected with siRNA targeting APPL1 or scrambled control siRNA for 24 h, followed by stimulation with AdipoAI for 24 h, then incubation with LPS for additional 6 h for western blotting analysis. Densitometry values for f—APPL1: 1.00, 0.43; p-IRAK4: 1.00, 1.31; p-P-38:1.00, 1.47. Densitometry values for g—APPL1: 1.00, 0.38; p-IRAK4: 1.00, 1.30; p-P38: 1.00, 1.67. Representative images are shown along with β-actin as an internal loading control, and densitometric analysis. No statistical analysis of western blotting for n=3.
Total cellular extracts were prepared using RIPA Lysis and Extraction Buffer containing three Protease Inhibitors (Thermo Scientific). Cytoplasmic and nuclear extracts were purified using NE-PER™ Nuclear and Cytoplasmic Extraction Reagents (Thermo Scientific). Experimental details of western blotting are in accordance with British Journal of Pharmacology guidelines (Alexander et al., 2018) and western blot analyses were performed as previously described (J. Zhang et al., 2017). Briefly, the total protein concentration was quantified using BCA kit (P1511; Applygen Technologies Inc., Beijing, China). The samples were separated by SDS-PAGE and electrophoretically transferred to a polyvinylidene difluoride membrane (Merck Millipore, Darmstadt, Germany). The membranes were blocked with 5% skim milk for 1 to 2 hr at room temperature. […]

[2] = tested on: peritoneal macrophages (PEMs); assay: IL-6 and IL-1β production by peritoneal macrophages isolated from AdipoAI-treated mice; format: in vivo, C57BL/6J mice; conditions: i.p., 20 mg/kg body weight as printed
LPS-induced BMMs = assay: ELISA of IL-6 and IL-1β in supernatants of LPS-induced BMMs; format: cell-based, C57BL/6J mice; conditions: AdipoAI 5 μM 24 h then LPS 6 h
Method: FIG. 2 AdipoAI suppresses LPS-stimulated inflammatory responses in macrophages. (a) Raw264.7 cells or (b) BMMs were pretreated with APR (20 μM) or AdipoAI (5 μM) for 24 h followed by incubation with LPS (100 ng/mL) for additional 6 h for the measurement of IL-6 and IL-1β in supernatants by ELISA. Data were expressed as the mean±SEM at five biological independent experiments. One-way ANOVA test for multiple-group comparisons, * vs. LPS group, *P<0.05, significant differences between each indicated group. (c) PEMs were isolated from C57BL/6J mice (n=5 mice/group) were injected i.p. with ImL 4% thioglycolate solution or AdipoAI (25 mg/kg) for the measurement of IL-6 and IL-1β. The amounts of IL-6 and IL-1β in supernatant were measured by ELISA. Data were expressed as the mean±SEM (n=5). Two-tailed Student's t-test for two groups, *P<0.05, significant differences between each indicated group. (d-f) Impact of AdipoAI on basal (d) and LPS-induced expression of an array of proinflammatory cytokines, chemokines, and receptors (e,f) in Raw264.7 cells (4 groups and 3 biological replicates/group). Data analyses were performed according to the manufacturer's instructions with their web-based software package (www.qiagen.com/us/shop/genes-and-pathways/data-analysis-center overview-page/). […]

[3] = LPS-induced Raw264.7 cells, AdipoAI 5 μM

Method for RAW 264.7 cells: RAW 264.7 cells were treated with receptor activator of nuclear factor KB ligand (RANKL) (100 ng/ml) for 2 days with or without AdipoRon (20 μM) or AdipoAI (5 μM) for another 2 days. […] (C) The CCK-8 analysis of RAW 264.7 cells treated with 20 μM AdipoRon or 5 μM AdipoAI for 48 h. (D) The CCK-8 analysis of RAW 264.7 cells' proliferation at different doses of APR and AdipoAI. Cells were treated with 100 ng/ml RANKL for 2 days with or without AdipoRon (5, 20 μM) or AdipoAI (5, 20 μM) every 2 days for 4 days. […] Data are shown as mean±SD., compared with the vehicle-treated group, *P<0.05. **P<0.01. ***P<0.001.
RAW 264.7 cells (2×10^3 cells/well) were seeded in 96-well plates and treated with or without AdipoRon or AdipoAI for 48 hours in a humidified chamber at 37° C. in 5% CO2 and air. Cell viability was determined with the Cell Counting Kit-8 (CCK-8 kit, Dojindo, Santa Clara, CA, USA) following the manufacturer's recommendations. Briefly, CCK-8 solution (10 μL) was added to each well and cells were incubated in dark for 3 hours. Cell viability was determined by measuring the absorbance at 450 nm.

| SMILES | APPL1 protein expression ([1]; Raw264.7 cells) | densitometry value p-IRAK4 (FIG. 5a) [1] | densitometry value p-P38 (FIG. 5a) [1] | densitometry value APPL1 (FIG. 5e), without LPS ([1]; AdipoAI 5 μM) | densitometry value APPL1 (FIG. 5e), with LPS [1] | production of IL-6 and IL-1β by PEMs from treated mice [2] | phosphorylation of AKT, JNK or ERK ([1]; LPS-induced Raw264.7 cells) | decrease of phosphorylation of IRAK4 [1, 3] [%] | decrease of phosphorylation of p38 [1, 3] [%] | AdipoR1 or AdipoR2 protein levels ([1]; Raw264.7 cells) | LPS-induced p65 phosphorylation and nuclear translocation ([1]; Raw264.7 cells) | IL-6 and IL-1β protein levels (ELISA) (LPS-induced BMMs) | number of RAW 264.7 cells (CCK-8) at 20 μM (RAW 264.7 cells) | number of RAW 264.7 cells (CCK-8) at 5 μM (RAW 264.7 cells; mouse, 48 h, 5 μM) |
| --- | --- | --- | --- | --- | --- | --- | --- | --- | --- | --- | --- | --- | --- | --- |
| O=C(COc1ccc(C(=O)c2ccccc2)cc1)NC1CCN(Cc2ccccc2)CC1 [AdipoRon, reference compound] | increased | 0.13 | 0.76 | 1.53 | 0.45 |  |  |  |  |  |  |  |  |  |
| COc1ccc(CN2CCC(NC(=O)COc3ccc(C(=O)c4ccc(Cl)cc4)cc3)CC2)cc1 [Compound 3] | increased APPL1 expression | 0.09 | 0.26 | 1.58 | 0.67 | reduced IL-6 and IL-1β | did not significantly alter phosphorylation of AKT, JNK or ERK | 70 | 70 | did not influence AdipoR1 or AdipoR2 protein levels | suppressed LPS-induced p65 phosphorylation and nuclear translocation | decreased IL-6 and IL-1β protein levels | reduced cell number | did not reduce the number of RAW 264.7 cells |
